Measurements as given in US11083707B2, “Substituted indoline derivatives as dengue viral replication inhibitors” (JANSSEN PHARMACEUTICALS, INC., priority 2017, dated 2021).
Read-outs that look alike come from different tables or passages of the source.

Key:
[1] = tested on: DENV-1 strain TC974#666; test: Tetravalent RT-qPCR assay Protocol A, serotype 1; format: cell-based; conditions: Dengue virus, DENV1, 72 h; RT-qPCR serotype 1 TC974#666, Vero cells, day 3
Description: (§1) The antiviral activity of the compounds of the invention was tested against DENV-1 strain TC974#666 (NCPV), DENV-2 strain 16681, DENV-3 strain H87 (NCPV) and DENV-4 strain H241 (NCPV) in a RT-qPCR assay. Therefore, Vero cells were infected with either DENV-1, or -2, or -3, or -4 in the presence or absence of test compounds. At day 3 post-infection, the cells were lysed and cell lysates were used to prepare cDNA of both a viral target (the 3′UTR of DENV; Table 2) and a cellular reference gene (β-actin, Table 2). Subsequently, a duplex real time PCR was performed on a Lightcycler480 instrument. The generated Cp value is inversely proportional to the amount of RNA expression of these targets. Inhibition of DENV replication by a test compound results in a shift of Cp's for the 3′UTR gene. On the other hand, if a test compound is toxic to the cells, a similar effect on β-actin expression will be observed. The comparative ΔΔCp method is used to calculate EC50, which is based on the relative gene expression of the target gene (3′UTR) normalized with the cellular housekeeping gene (β-actin). In addition, CC50 values are determined based on the Cp values acquired for the housekeeping gene β-actin.
(§2) The culture medium consisted of minimal essential medium supplemented with 2% of heat-inactivated fetal calf serum, 0.04% gentamycin (50 mg/mL) and 2 mM of L-glutamine. Vero cells, obtained from ECACC, were suspended in culture medium and 75 μL/well was added in 96-well plates (10000 cells/well), which already contain the antiviral compounds. […] In addition, each plate contains wells which are assigned as virus controls (containing cells and virus in the absence of compound) and cell controls (containing cells in the absence of virus and compound). Once the cells were added in the plates, the plates were incubated in a fully humidified incubator (37° C., 5% CO2) until the next day. Dengue viruses serotype-1, 2, 3 and 4 were diluted in order to obtain a Cp of ˜22-24 in the assay. Therefore, 25 μL of virus suspension was added to all the wells containing test compound and to the wells assigned as virus control. In parallel, 25 μL of culture medium was added to the cell controls. Next, the plates were incubated for 3 days in a fully humidified incubator (37° C., 5% CO2). After 3 days, the supernatant was removed from the wells and the cells were washed twice with ice-cold PBS (˜100 μL). The cell pellets within the 96-well plates were stored at −80° C. for at least 1 day. Next, RNA was extracted using the Cells-to-CT™ lysis kit, according to the manufacturer's guideline (Life Technologies). The cell lysates can be stored at −80° C. or immediately used in the reverse transcription step.
(§3) In preparation of the reverse transcription step, mix A (table 3A) was prepared and 7.57 μL/well was dispensed in a 96-well plate. After addition of 5 μL of the cell lysates, a five minute denaturation step at 75° C. was performed (table 3B). Afterwards, 7.43 μL of mix B was added (table 3C) and the reverse transcription step was initiated (table 3D) to generate cDNA.
(§4) Finally, a RT-qPCR mix was prepared, mix C (table 4A), and 22.02 μL/well was dispensed in 96-well LightCycler qPCR plates to which 3 μL of cDNA was added and the qPCR was performed according to the conditions in table 4B on a LightCycler 480.
(§5) Using the LightCycler software and an in-house LIMS system, dose response curves for each compound were calculated and the half maximal effective concentration (EC50) and the half maximal cytotoxic concentration (CC50) were determined (Tables 5-8).

[2] = tested on: DENV-2 strain 16681; test: Tetravalent RT-qPCR assay Protocol A, serotype 2; format: cell-based; conditions: Dengue virus
Description: as §1, §2, §3, §4, §5

[3] = tested on: DENV-3 strain H87; test: Tetravalent RT-qPCR assay Protocol A, serotype 3; format: cell-based; conditions: Dengue virus, DENV3, 72 h; RT-qPCR serotype 3 H87, Vero cells, day 3
Description: as §1, §2, §3, §4, §5

[4] = tested on: DENV-2 16681 strain; test: DENV-2 antiviral assay (eGFP fluorescence, Vero cells); format: cell-based, Dengue virus; conditions: DENV-2 16681 eGFP, MOI 0.5, 3 days
Description: The antiviral activity of all the compounds of the invention was tested against the DENV-2 16681 strain which was labeled with enhanced green fluorescent protein (eGPF). The culture medium consists of minimal essential medium supplemented with 2% of heat-inactivated fetal calf serum, 0.04% gentamycin (50 mg/mL) and 2 mM of L-glutamine. Vero cells, obtained from ECACC, were suspended in culture medium and 25 μL was added to 384-well plates (2500 cells/well), which already contain the antiviral compounds. Typically, these plates contain a 5-fold serial dilution of 9 dilution steps of the test compound at 200 times the final concentration in 100% DMSO (200 nL). […] Finally, each plate contains wells which are assigned as virus controls (containing cells and virus in the absence of compound), cell controls (containing cells in the absence of virus and compound) and medium controls (containing medium in the absence of cells, virus and compounds). To the wells assigned as medium control, 25 μL of culture medium was added instead of Vero cells. Once the cells were added to the plates, the plates were incubated for 30 minutes at room temperature to allow the cells to distribute evenly within the wells. Next, the plates were incubated in a fully humidified incubator (37° C., 5% CO2) until the next day. Then, DENV-2 strain 16681, labeled with eGFP, was added at a multiplicity of infection (MOI) of 0.5. Therefore, 15 μL of virus suspension was added to all the wells containing test compound and to the wells assigned as virus control. In parallel, 15 μL of culture medium was added to the medium and cell controls. Next, the plates were incubated for 3 days in a fully humidified incubator (37° C., 5% CO2). At the day of the read out, the eGFP fluorescence was measured using an automated fluorescence microscope at 488 nm (blue laser). Using an in-house LIMS system, inhibition dose response curves for each compound were calculated and the half maximal effective concentration (EC50) was determined. Therefore, the percent inhibition (I) for every test concentration is calculated using the following formula: I=100*(ST-SCC)/(SVC-SCC), ST, SCC and SVC are the amount of eGFP signal in the test compound, cell control and virus control wells, respectively. The EC50 represents the concentration of a compound at which the virus replication is inhibited with 50%, as measured by a 50% reduction of the eGFP fluorescent intensity compared to the virus control. The EC50 is calculated using linear interpolation (Table 1).

[5] = tested on: Vero cells; conditions: African green monkey
[6] = tested on: DENV-4 strain H241; test: Tetravalent RT-qPCR assay Protocol A, serotype 4; format: cell-based; conditions: Dengue virus, DENV4, 72 h; RT-qPCR serotype 4 H241, Vero cells, day 3
Description: as §1, §2, §3, §4, §5

[7] = in vitro; conditions: African green monkey
[8] = in vitro; format: cell-based; conditions: African green monkey
Description: as §1, §2, §3, §4, §5

[9] = DENV2, 72 h, RT-qPCR serotype 2 16681, Vero cells, day 3, read-out: EC50

Compound | EC50 [1] [nM] | EC50 [2, 9] [nM] | EC50 [3] [nM] | EC50 [4] [nM] | CC50 [5] [nM] | EC50 [6] [nM] | EC50 ([2]; DENV2, Vero, 72 h) [nM] | CC50 [7] [nM] | CC50 at 3 days [8] [nM]
COc1cc(NC(C(=O)N2CCc3cc(F)c(C(F)(F)F)cc32)c2ccc(Cl)cc2OCCO)cc(-n2cncn2)c1 (single isomer, unassigned) [Compound 7B] | 0.88 | 1.9 | 13 | 1.8 | 7600 | 120 |  |  | 
COc1cc(NC(C(=O)N2CCc3cc(F)c(OC(F)(F)F)cc32)c2ccc(Cl)cc2OCCCC(=O)O)cc(-n2cncn2)c1 (single isomer, unassigned) [Compound 15B] | 0.13 |  | 2.8 | 0.13 | 11000 | 15 | 0.1 |  | 
COc1cc(NC(C(=O)N2CCc3cc(F)c(OC(F)(F)F)cc32)c2ccc(Cl)cc2OCCO)cc(-n2cncn2)c1 (single isomer, unassigned) [Compound 9B] | 0.99 | 0.47 | 6.4 | 0.6 | 10000 | 87 |  |  | 
COc1cc(NC(C(=O)N2CCc3ccc(OC(F)(F)F)cc32)c2ccc(Cl)cc2OCCCC(=O)O)cc(-n2cncn2)c1 (single isomer, unassigned) [Compound 13A] | 0.12 | 0.057 | 1.8 | 0.12 |  | 10 |  | 12000 | > 2500
COc1cc(NC(C(=O)N2CCc3ccc(OC(F)(F)F)cc32)c2ccc(Cl)cc2OCCO)cc(-n2cncn2)c1 (single isomer, unassigned) [Compound 6A] | 0.64 | 0.49 | 8.1 | 0.59 |  | 60 |  | 8500 | 
COc1cc(NC(C(=O)N2CCc3ccc(C(F)(F)F)cc32)c2ccc(Cl)cc2OCCO)cc(-n2cncn2)c1 (single isomer, unassigned) [Compound 4B] | 0.57 | 0.45 | 11 | 1 | 11000 | 76 |  |  | > 2500
COc1cc(NC(C(=O)N2CCc3c(C)cc(OC(F)(F)F)cc32)c2ccc(Cl)cc2OCCCC(=O)O)cc(-n2cncn2)c1 (single isomer, unassigned) [Compound 16B] | 0.092 | 0.055 | 0.87 | 0.069 | 6200 | 5.3 |  |  | > 1000
COc1cc(NC(C(=O)N2CCc3cc(OC)c(C(F)(F)F)cc32)c2ccc(Cl)cc2OCCCC(=O)O)cc(-n2cncn2)c1 (single isomer, unassigned) [Compound 12A] | 2.1 | 0.42 | 36 | 1.2 |  | 100 |  | 13000 | 
COc1cc(NC(C(=O)N2CCc3cc(OC)c(C(F)(F)F)cc32)c2ccc(F)cc2OCCO)cc(-n2cncn2)c1 (single isomer, unassigned) [Compound 2B] | 6 | 2.1 | 38 | 1.8 | 10000 | 150 |  |  | > 2500
COc1cc(NC(C(=O)N2CCc3ccc(C(F)(F)F)cc32)c2ccc(F)cc2OCCO)cc(-n2cncn2)c1 (single isomer, unassigned) [Compound 1B] | 1.5 | 2.4 | 25 | 2.8 | 9800 | 180 |  |  | > 2500
COc1cc(NC(C(=O)N2CCc3ccc(OC(F)(F)F)cc32)c2ccc(Cl)cc2OCCO)cc(-n2cncn2)c1 (single isomer, unassigned) [Compound 6B] |  |  |  | 92 | 7300 |  |  |  | 
COc1cc(NC(C(=O)N2CCc3cc(OC)c(C(F)(F)F)cc32)c2ccc(Cl)cc2OCCCC(=O)O)cc(-n2cncn2)c1 (single isomer, unassigned) [Compound 12B] |  |  |  | 320 | 12000 |  |  |  | 
COc1cc(NC(C(=O)N2CCc3cc(OC)c(OC(F)(F)F)cc32)c2ccc(Cl)cc2OCCO)cc(-n2cncn2)c1 (single isomer, unassigned) [Compound 8B] |  |  |  | 250 | 12000 |  |  |  | 
COc1cc(NC(C(=O)N2CCc3cc(OC)c(OC(F)(F)F)cc32)c2ccc(Cl)cc2OCCO)cc(-n2cncn2)c1 (single isomer, unassigned) [Compound 8A] | 2 |  | 15 | 1.5 |  | 56 | 0.38 | 12000 | 
COc1cc(NC(C(=O)N2CCc3c(C)cc(OC(F)(F)F)cc32)c2ccc(Cl)cc2OCCO)cc(-n2cncn2)c1 (single isomer, unassigned) [Compound 10B] | 0.36 | 0.15 | 5.9 | 0.25 | 11000 | 32 |  |  | 
COc1cc(NC(C(=O)N2CCc3ccc(OC(F)(F)F)cc32)c2ccc(Cl)cc2OCCCC(=O)O)cc(-n2cncn2)c1 (single isomer, unassigned) [Compound 13B] |  |  |  | 12 | 12000 |  |  |  | 
COc1cc(NC(C(=O)N2CCc3ccc(OC(F)(F)F)cc32)c2ccc(F)cc2OCCO)cc(-n2cncn2)c1 (single isomer, unassigned) [Compound 3B] | 2.4 | 1.4 | 23 | 0.99 | 8700 | 98 |  |  | 
